Assays:
[1] = solid-state properties of the crystalline salt (stability, hygroscopicity); type: physicochemical
[2] = applied as a suitable topical formulation

In the case of `C=CC1(C)CC(OC(=O)CSC2CC3CCC(C2)N3C)C2(C)C(C)CCC3(CCC(=O)C32)C(C)C1O.O=C(O)CCC(=O)O` (stereo not drawn) [hydrosuccinate salt, hydrosuccinate salt of mutilin 14-(exo-8-methyl-8-azabicyclo[3.2.1]oct-3-ylsulfanyl)-acetate], the “hygroscopicity of the crystalline form” value [1] is reported as “non-hygroscopic”, the “stability of the crystalline form” value [1] is reported as “stable” and the irritation [2] is reported as “does not cause significant irritation”.

— patent publication US8207191B2, “Process, salts, composition and use” (Glaxo Group Limited, priority 2003, dated 2012)
